Our source for the IC50 and GI50 values is patent US20140051679A1, “KINASE INHIBITORS AND METHOD OF TREATING CANCER WITH SAME” (UNIVERISTY HEALTH NETWORKS, priority 2011, published 2014).

Each structure is given as a SMILES string. pIC50: −log10 of the molar value. Where only a bound is given, the exact number is not on record here.

One assay has as its target T1, human TTK (Homo sapiens, UniProt P33981).
T1 construct: amino terminal GST fusion of full length human TTK; purchased Invitrogen
T1 sequence (P33981 1-857): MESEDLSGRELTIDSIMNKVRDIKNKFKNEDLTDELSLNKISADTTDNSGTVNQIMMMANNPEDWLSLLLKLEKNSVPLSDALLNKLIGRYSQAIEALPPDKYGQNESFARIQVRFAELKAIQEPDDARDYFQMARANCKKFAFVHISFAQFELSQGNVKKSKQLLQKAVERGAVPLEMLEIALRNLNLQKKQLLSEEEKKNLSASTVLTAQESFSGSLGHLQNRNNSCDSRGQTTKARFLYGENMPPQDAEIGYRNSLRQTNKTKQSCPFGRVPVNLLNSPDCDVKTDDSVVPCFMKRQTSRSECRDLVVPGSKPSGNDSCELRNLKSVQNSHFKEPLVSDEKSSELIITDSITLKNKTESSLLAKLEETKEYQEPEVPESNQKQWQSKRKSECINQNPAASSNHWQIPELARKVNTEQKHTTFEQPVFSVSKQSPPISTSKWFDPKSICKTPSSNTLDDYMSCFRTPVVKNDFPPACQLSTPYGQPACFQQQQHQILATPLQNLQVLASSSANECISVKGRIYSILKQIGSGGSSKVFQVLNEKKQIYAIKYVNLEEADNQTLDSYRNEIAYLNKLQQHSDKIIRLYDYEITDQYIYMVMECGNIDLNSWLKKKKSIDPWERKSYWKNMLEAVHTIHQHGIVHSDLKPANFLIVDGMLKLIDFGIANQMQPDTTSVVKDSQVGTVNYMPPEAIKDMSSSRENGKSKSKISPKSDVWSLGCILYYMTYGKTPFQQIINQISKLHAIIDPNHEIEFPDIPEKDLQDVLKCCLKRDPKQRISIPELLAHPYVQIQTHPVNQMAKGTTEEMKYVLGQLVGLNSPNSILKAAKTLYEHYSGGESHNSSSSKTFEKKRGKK
In words: TTK inhibition assay (indirect ELISA). The assay is classed as biochemical. Particulars: GST-TTK 0.68 nM, 16 μM ATP; read-out: IC50 Ranges TTK. (In an ELISA, binding on a coated surface is turned into a signal by an enzyme label.)

For a further assay, the target named is T2, human PLK4 (Homo sapiens, UniProt O00444).
T2 construct: amino terminal GST fusion of residues 1-391 of human PLK4; made in house; host or cells: E. coli
T2 sequence (O00444 1-391): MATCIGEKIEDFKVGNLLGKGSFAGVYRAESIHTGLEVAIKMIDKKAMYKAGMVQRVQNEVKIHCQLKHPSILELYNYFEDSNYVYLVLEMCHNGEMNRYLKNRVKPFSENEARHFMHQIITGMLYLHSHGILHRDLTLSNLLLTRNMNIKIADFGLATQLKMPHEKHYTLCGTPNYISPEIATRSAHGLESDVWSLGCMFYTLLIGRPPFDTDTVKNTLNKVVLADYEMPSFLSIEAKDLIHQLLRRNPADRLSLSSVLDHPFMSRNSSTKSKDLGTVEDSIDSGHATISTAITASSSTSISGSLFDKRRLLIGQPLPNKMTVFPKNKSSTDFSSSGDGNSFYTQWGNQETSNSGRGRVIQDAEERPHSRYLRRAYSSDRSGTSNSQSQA
In words: PLK4 inhibition assay (indirect ELISA). The assay is classed as biochemical. Conditions: GST-PLK4 4 nM, 15 μM ATP; read-out: IC50 Ranges PLK4. A digest of the protocol:
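Dephosphorylated GST-tagged human PLK4 (residues 1-391, E. coli), 4 nM, preincubated 15 min with compound, then reacted 30 min with 15 μM ATP on MBP-coated plates (50 mM HEPES pH 7.5, 10 mM MgCl2, 0.01% Brij 35). Phospho-MBP detected by antibody ELISA at 450 nm. Tested at 10 μM or 10-point titrations; IC50 from 4-parameter logistic fit.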

Assay [1] has as its system MDA-MB-468 breast cancer cells. Put plainly: Cell growth inhibition, Sulforhodamine B assay, MDA-MB-468. It counts as cell-based. Particulars: Homo sapiens, 120 h, 5 days culture, SRB assay, read-out: Cell Line GI50 Range MDA-MB-468.
Assay [2] has as its system HCT116 colon cancer cells. Put plainly: Cell growth inhibition, Sulforhodamine B assay, HCT116. It counts as cell-based. Particulars: Homo sapiens, HCT-116, 120 h, 5 days culture, SRB assay, read-out: Cell Line GI50 Range HCT116.
Protocol: Breast cancer cells (MDA-MB-231, MDA-MB-468), colon cancer cells (HCT116, HT29) and ovarian cancer cells (PA-1, OVCAR-3) were seeded (1000 to 4000 in 80 μl per well depending on the cell growth rate) into 96 well plates 24 hours before compound overlay. Compounds were prepared as 10 mM stock solutions in 100% DMSO which were diluted with DMEM (Dulbecco's Modified Eagle's Medium) cell growth Medium (Invitrogen, Burlington, ON, Canada) containing 10% FBS (Fetal Bovine Serum) to concentrations ranging from 50 nM to 250 μM. Aliquots (20 μl) from each concentration were overlaid to 80 μl of the pre-seeded cells in the 96 well plates to make final concentrations of 10 nM to 50 μM. The cells were cultured for 5 days before the Sulforhodamine B assay (SRB) was performed to determine the compound's cell growth inhibition activity.
Sulforhodamine B (purchased from Sigma, Oakville, ON, Canada) is a water-soluble dye that binds to the basic amino acids of the cellular proteins. Thus, colorimetric measurement of the bound dye provides an estimate of the total protein mass that is related to the cell number. the cells are fixed in situ by gently aspirating off the culture media and adding 50 μl ice cold 10% Trichloroacetic Acid (TCA) per well and incubate at 4° C. for 30-60 min, The plates are washed with water five times and allowed to air dry for 5 min. Addition of 50 μl 0.4% (w/v) SRB solution in 1% (v/v) acetic acid to each well and incubatation for 30 min at RT completes the staining reaction. Following staining, plates are washed four times with 1% acetic acid to remove unbound dye and then allowed to air dry for 5 min. The stain is solubilized with 100 μl of 10 mM Tris pH 10.5 per well. Absorbance is read at 570 nm.
The percentage (%) of relative growth inhibition was calculated by comparing to DMSO treated only cells (100%). […] The GI50 was calculated using GraphPad PRISM software (GraphPad Software, Inc., San Diego, Calif., USA).
Another assay deals with HT29 colon cancer cells. Put plainly: Cell growth inhibition, Sulforhodamine B assay, HT29. It counts as cell-based. Conditions: Homo sapiens, HT-29, 120 h, 5 days culture, SRB assay, read-out: Cell Line GI50 Range HT29. For orientation: Sulforhodamine B stains cellular protein and so reports cell mass.
Assay [3] deals with PA-1 ovarian cancer cells. Put plainly: Cell growth inhibition, Sulforhodamine B assay, PA-1. It counts as cell-based. Particulars: 120 h, 5 days culture, SRB assay, read-out: Cell Line GI50 Range PA-1.
In assay [4] the test system is OVCAR-3 ovarian cancer cells. In words: Cell growth inhibition, Sulforhodamine B assay, OVCAR-3. The assay is classed as cell-based. Particulars: Homo sapiens, 120 h, 5 days culture, SRB assay, read-out: Cell Line GI50 Range OVCAR-3.
The subject of assay [5] is Colon tumor initiating cells (TICs), 12 colon. Put plainly: Colon tumor-initiating cell growth inhibition (Alamar Blue). The assay is classed as cell-based. Conditions: 216 h, 9 days, read-out: GI50 range 12 colon. On the technique in general: The colour change of resazurin is a common sign of viable cells or microbes.
The test system of assay [6] is Ovarian TICs, 2393A ovarian. In words: Ovarian tumor-initiating cell growth inhibition (Alamar Blue). The assay is classed as cell-based. Conditions: 144 h, 6 days, read-out: GI50 range 2393A ovarian.
Description: Materials and Methods: Non-tissue or tissure cultured treated T-75 flask and 96-well plates were purchased from VWR. Vitamin B-27 supplement, MEM NEAA (minimum essential medium non essential amino acids), sodium pyruvate, L-glutamine, N2 supplement, penicillin-streptomycin and fungizone/amphotericin B were obtained from Invitrogen. Lipid mixture, heparin and EGF were purchased from Sigma; bFGF from BD Biosciences. Colon tumor initiating cells (TICs) were routinely maintained using non-tissue cultured treated T-75 flasks in DMEM:F12 medium containing 0.2XB-27 supplement, 4 ug/ml heparin, 1XMEM NEAA, 1× sodium pyruvate, 1 mM glutamine, 10 pg/ul bFGF, 20 pg/ul EGF, 1×N2 supplement, lipid mixture, penicillin-streptomycin and fungizone/amphotericin B. Ovarian TICs were routinely maintained using tissue cultured treated T-75 flasks in DMEM:F12 medium containing 1XB-27 supplement, 4 ug/ml heparin, 20 pg/ul bFGF, 20 pg/ul EGF and penicillin-streptomycin.
Compounds described herein were dissolved in DMSO and further diluted in cell culture medium for GI50 determination. Colon TICs were trypsinized and seeded into non-tissue cultured treated 96-well plates with 4,000 cells/well. After 24 h, compound was added into the cell culture at different concentrations, and the final concentration of DMSO was adjusted to 0.1%. Cells were then cultured at 37° C. for 9 days. Ovarian TICs were trypsinized and seeded into tissue cultured treated 96-well plates with 1,000 cells/well. After 24 h, compound was added into the cell culture at different concentrations, and the final concentration of DMSO was adjusted to 0.1%. Cells were then cultured at 37° C. for 6 days. Cell viability was assessed by Alamar Blue assay: 10 ul of Alamar Blue was added into each well. After 4 hours incubation at 37° C., fluorescence was recorded at excitation 544 and emission 590. GI50 (Growth inhibition) was calculated using GraphPad Prism 4.0 software.
The target of a further assay is T3, Aurora B (Homo sapiens, UniProt Q96GD4).
T3 construct: purchased Invitrogen PV3970
T3 sequence (Q96GD4 whole entry): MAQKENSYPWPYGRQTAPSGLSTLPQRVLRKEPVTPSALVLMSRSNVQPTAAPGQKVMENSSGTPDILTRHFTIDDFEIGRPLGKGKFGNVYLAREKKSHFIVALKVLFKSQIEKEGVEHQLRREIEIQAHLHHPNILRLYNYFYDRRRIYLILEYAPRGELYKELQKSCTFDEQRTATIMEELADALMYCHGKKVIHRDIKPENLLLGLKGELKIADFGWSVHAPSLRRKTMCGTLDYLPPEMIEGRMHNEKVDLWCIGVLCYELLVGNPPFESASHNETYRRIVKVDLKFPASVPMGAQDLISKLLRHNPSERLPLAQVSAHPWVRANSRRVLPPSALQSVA
Put plainly: Aurora B inhibition assay (Z-Lyte). It counts as biochemical. Particulars: 28 nM Aurora B, 128 μM ATP; read-out: IC50 Ranges Aurora B. The procedure:
Aurora B inhibition was determined using the Z-Lyte assay kit from Invitrogen. The assay was performed using the recommended manufacturer's instructions with 128 μM ATP and 28 nM Aurora B (Invitrogen cat #PV3970). The % inhibition values were determined according to the manufacturer's directions and IC50 values were obtained using a non-linear 4 point logistic curve fit (XLfit4, IDBS)

The test system of assay [7] is MDA-MB-231 breast cancer cells. Put plainly: Cell growth inhibition, Sulforhodamine B assay, MDA-MB-231. It counts as cell-based. Conditions: Homo sapiens, 120 h, 5 days culture, SRB assay, read-out: Cell Line GI50 Range MDA-MB-231.

Take `CO[C@@H](C(=O)Nc1ccc2[nH]nc(-c3ccc(OC4CCN(C=O)CC4)cc3)c2c1)c1ccccc1` [Example A169, (R)—N-(3-(4-((1-formylpiperidin-4-yl)oxy)phenyl)-1H-indazol-5-yl)-2-methoxy-2-phenylacetamide]: the pIC50 at human TTK and at human PLK4 was not below 5.30 in each case. Besides, the GI50 (in general, the concentration at which growth is held to half of that of the control) in assay [1] is not above 5 µM; in assay [2], not above 5 µM; with HT29 colon cancer cells, not above 5 µM; in [3], not above 5 µM; in assay [4], 5 to 20 µM; in assay [5] it was not above 5 µM. For the same molecule, the GI50 in assay [6] is not above 5 µM.

On to `O=C(NC(c1ccccn1)C1CC1)c1ccc2[nH]nc(-c3ccc(OC4CCN(C5COC5)CC4)cc3)c2c1` (centres unmarked) [Example A171, N-(cyclopropyl(pyridin-2-yl)methyl)-3-(4-((1-(oxetan-3-yl)piperidin-4-yl)oxy)phenyl)-1H-indazole-5-carboxamide], for which the negative-log IC50 (pIC50) on human TTK, on human PLK4 and at Aurora B was not below 5.30 throughout. Further, the GI50 (in assay [1]; in assay [2]; in the assay on HT29 colon cancer cells; in [3]; in assay [4]; in assay [5]) was not above 5 µM each time. For the same molecule, the GI50 in assay [6] was not above 5 µM.

For `O=C(Nc1ccc2[nH]nc(-c3ccc(N4CCOCC4)cc3)c2c1)C(c1ccsc1)N1CCC1` (centres unmarked) [Example A172, 2-(azetidin-1-yl)-N-(3-(4-morpholinophenyl)-1H-indazol-5-yl)-2-(thiophen-3-yl)acetamide], the pIC50 at human TTK, at human PLK4 and at Aurora B was not below 5.30 in each case. Besides, the GI50 (in assay [1]; in assay [2]; in the assay with HT29 colon cancer cells; in assay [3]; in [5]; in [6]) was not above 5 µM in each case.

As to `CCOC(C(=O)Nc1ccc2[nH]nc(-c3ccc(OC4CCN(C)CC4)cc3)c2c1)c1ccccc1` (centres unmarked) [Example A181, 2-ethoxy-N-(3-(4-((1-methylpiperidin-4-yl)oxy)phenyl)-1H-indazol-5-yl)-2-phenylacetamide], the pIC50 on human TTK and on human PLK4 was not below 5.30 throughout. The GI50 in assay [7], in assay [1], in assay [2], in assay [3], in assay [4] and in [5] was not above 5 µM throughout. Moreover, in assay [6], the GI50 was not above 5 µM.

For `CN1CCC(Oc2ccc(-c3n[nH]c4ccc(NC(=O)C(OC5CCCC5)c5ccccc5)cc34)cc2)CC1` (centres unmarked) [Example A183, 2-(cyclopentyloxy)-N-(3-(4-((1-methylpiperidin-4-yl)oxy)phenyl)-1H-indazol-5-yl)-2-phenylacetamide], the pIC50 at human TTK, at human PLK4 and at Aurora B was not below 5.30 in each case. In addition, the GI50 in [7], in assay [1], in [2], in [3], in assay [4] and in assay [5] was not above 5 µM in each case. Besides, the GI50 in [6] was not above 5 µM.

`O=C(Nc1ccc2[nH]nc(-c3ccc(OC4CCN(C5COC5)CC4)cc3)c2c1)C(c1ccsc1)N1CCCC1` (centres unmarked) [Example A184, N-(3-(4-((1-(oxetan-3-yl)piperidin-4-yl)oxy)phenyl)-1H-indazol-5-yl)-2-(pyrrolidin-1-yl)-2-(thiophen-3-yl)acetamide]: the pIC50 at human TTK, on human PLK4 and on Aurora B was not below 5.30 throughout. The GI50 in assay [7], in assay [1], in [2], in assay [3], in assay [5] and in [6] was not above 5 µM in each case.

For `CC(C)OC(C(=O)Nc1ccc2[nH]nc(-c3ccc(OC4CCN(C)CC4)cc3)c2c1)c1ccccc1` (centres unmarked) [Example A187, 2-isopropoxy-N-(3-(4-((1-methylpiperidin-4-yl)oxy)phenyl)-1H-indazol-5-yl)-2-phenylacetamide], the pIC50 at human TTK, on human PLK4 and on Aurora B was not below 5.30 each time. Besides, the GI50 in [7], in [1], in [2], in [3], in assay [4] and in assay [5] was not above 5 µM each time. Also, the GI50 in assay [6] was not above 5 µM.

As for `CN1CCC(Oc2ccc(-c3n[nH]c4ccc(C(=O)NC(c5ccccc5)C5CC5)cc34)cc2Cl)CC1` (centres unmarked) [Example A188, 3-(3-chloro-4-((1-methylpiperidin-4-yl)oxy)phenyl)-N-(cyclopropyl(phenyl)methyl)-1H-indazole-5-carboxamide], the pIC50 on human TTK, at human PLK4 and at Aurora B was not below 5.30 each time. In addition, the GI50 in assay [7], in assay [1], in [2], in [3], in assay [4] and in assay [5] was not above 5 µM in each case. Besides, the concentration for 50% growth inhibition (GI50) in assay [6] is not above 5 µM.

As for `O=C(Nc1ccc2[nH]nc(-c3ccc(OC4CN(C5COC5)C4)cc3)c2c1)C(c1ccsc1)N1CCCC1` (centres unmarked) [Example A189, N-(3-(4-((1-(oxetan-3-yl)azetidin-3-yl)oxy)phenyl)-1H-indazol-5-yl)-2-(pyrrolidin-1-yl)-2-(thiophen-3-yl)acetamide], the pIC50 at human TTK, on human PLK4 and on Aurora B was not below 5.30 throughout. Also, the GI50 in assay [7] was 5 to 20 µM; in assay [1], not above 5 µM; in assay [2], not above 5 µM; in [3], not above 5 µM; in assay [4], 20 to 50 µM; in assay [5], not above 5 µM. Further, the GI50 in assay [6] is not above 5 µM.
